Data taken from the OligoGym collection.
Where “and” joins values, the source holds several entries; their conditions need not be identical. Equal values may be shown once. After the bases stand the sugars from the 5' end (letter, count) and the backbone: PS all phosphorothioate, else s phosphorothioate and o phosphodiester by linkage. Methylation of C is not given here. e = 2'-O-(2-methoxyethyl) (MOE); k = constrained ethyl (cEt); d = 2'-deoxy (DNA)

Biological target: SOD1
Settings: ASO

GGCGATCCCAATTACACCAC (sugars e6 d9 e5, linkages s1 o4 s10 o2 s2)
target mRNA inhibition (A431, 0.062 µM): 0%
target mRNA inhibition (A431, 0.185 µM): 0%
target mRNA inhibition (A431, 0.556 µM): 0%
target mRNA inhibition (A431, 1.667 µM): 0%
target mRNA inhibition (A431, 5 µM): 4%
target mRNA inhibition (A431, 15 µM): 0%
target mRNA inhibition (SH-SY5Y, 0.062 µM): 0%
target mRNA inhibition (SH-SY5Y, 0.185 µM): 3%
target mRNA inhibition (SH-SY5Y, 0.556 µM): 20%
target mRNA inhibition (SH-SY5Y, 1.667 µM): 38%
target mRNA inhibition (SH-SY5Y, 5 µM): 61%
target mRNA inhibition (SH-SY5Y, 15 µM): 84%

GGCTTGAATGACAAAGA (sugars e2 k2 d8 k2 e3, PS)
target mRNA inhibition (HepG2, 5 µM): 54%

GGGCCTCAGACTACATC (sugars e2 k2 d8 k2 e3, PS)
target mRNA inhibition (HepG2, 4 µM): 55%

GGGCCTCAGACTACATC (sugars e3 k2 d7 k2 e3, PS)
target mRNA inhibition (HepG2, 3 µM): 24%

GTACTTTAAAGCAACTCTGA (sugars e5 d10 e5, PS)
target mRNA inhibition (HepG2, 5 µM): 22%

GTCACACAATTACACTT (sugars e2 k2 d8 k2 e3, PS)
target mRNA inhibition (HepG2, 5 µM): 28%

GTCAGTCCTTTAATGCTTCC (sugars e5 d10 e5, PS)
target mRNA inhibition (HepG2, 5 µM): 34%

GTCATCTGCTTTTTCAT (sugars e3 k2 d7 k2 e3, PS)
target mRNA inhibition (HepG2, 3 µM): 74%

GTCGCCCTTCAGCACGC (sugars e2 k2 d8 k2 e3, PS)
target mRNA inhibition (HepG2, 4 µM): 60%

GTGAGGACCTGCACTGG (sugars e3 k2 d7 k2 e3, PS)
target mRNA inhibition (HepG2, 3 µM): 21%

GTGATCATAAATCAGTT (sugars e2 k2 d8 k2 e3, PS)
target mRNA inhibition (HepG2, 5 µM): 33%

GTGATCATAAATCAGTTTCT (sugars e5 d10 e5, PS)
target mRNA inhibition (HepG2, 5 µM): 37%

GTGCCATACAGGGTTTT (sugars e2 k2 d9 k2 e2, PS)
target mRNA inhibition (HepG2, 5 µM): 28%

GTGTTTAATGTTTATC (sugars ekddddddddekekee, linkages s1 o1 s8 o3 s2)
target mRNA inhibition (A431, 0.12 µM): 10%
target mRNA inhibition (A431, 0.6 µM): 32%
target mRNA inhibition (A431, 3 µM): 66%
target mRNA inhibition (A431, 15 µM): 79%
target mRNA inhibition (HepG2, 0.222 µM): 40%
target mRNA inhibition (HepG2, 0.667 µM): 63%
target mRNA inhibition (HepG2, 2 µM): 76%
target mRNA inhibition (HepG2, 6 µM): 86%

GTTTAATACCCATCTGT (sugars e3 k2 d7 k2 e3, PS)
target mRNA inhibition (HepG2, 3 µM): 17%

GTTTATCAGGATACATT (sugars e2 k2 d9 k2 e2, PS)
target mRNA inhibition (HepG2, 0.1875 µM): 38%
target mRNA inhibition (HepG2, 0.75 µM): 74%
target mRNA inhibition (HepG2, 3 µM): 89%
target mRNA inhibition (HepG2, 4 µM): 88%
target mRNA inhibition (HepG2, 12 µM): 95%

GTTTCTCACTACAGGTA (sugars e2 k2 d8 k2 e3, PS)
target mRNA inhibition (HepG2, 5 µM): 25%

GTTTCTCACTACAGGTA (sugars e2 k2 d9 k2 e2, PS)
target mRNA inhibition (HepG2, 5 µM): 38%

GTTTCTCACTACAGGTACTT (sugars e5 d10 e5, PS)
target mRNA inhibition (HepG2, 5 µM): 30%

GTTTTTATTCACAGGCT (sugars e3 k2 d7 k2 e3, PS)
target mRNA inhibition (HepG2, 3 µM): 10%

TAAGTGCCATACAGGGT (sugars e2 k2 d9 k2 e2, PS)
target mRNA inhibition (HepG2, 5 µM): 35%

TAATAAGTGCCATACAG (sugars e2 k2 d8 k2 e3, PS)
target mRNA inhibition (HepG2, 5 µM): 22%

TAATACCCATCTGTGAT (sugars e2 k2 d8 k2 e3, PS)
target mRNA inhibition (HepG2, 5 µM): 25%

TAATACCCATCTGTGAT (sugars e2 k2 d9 k2 e2, PS)
target mRNA inhibition (HepG2, 5 µM): 28%

TACAAATCTTCCAAGTG (sugars e3 k2 d7 k2 e3, PS)
target mRNA inhibition (HepG2, 3 µM): 17%

TACAGGGTTTTTATTCA (sugars e3 k2 d7 k2 e3, PS)
target mRNA inhibition (HepG2, 3 µM): 11%

TACAGGTACTTTAAAGC (sugars e2 k2 d8 k2 e3, PS)
target mRNA inhibition (HepG2, 5 µM): 23%

TACATTTCTACAGCTA (sugars kekeddddddddekek, linkages s1 o3 s8 o1 s2)
target mRNA inhibition (A431, 0.12 µM): 0%
target mRNA inhibition (A431, 0.6 µM): 13%
target mRNA inhibition (A431, 3 µM): 36%
target mRNA inhibition (A431, 15 µM): 59%

TAGCCTCATAATAAGTG (sugars e2 k2 d9 k2 e2, PS)
target mRNA inhibition (HepG2, 5 µM): 27%

TCACACAATTACACTTTTAA (sugars e5 d10 e5, PS)
target mRNA inhibition (HepG2, 5 µM): 15%

TCACAGGCTTGAATGAC (sugars e2 k2 d8 k2 e3, PS)
target mRNA inhibition (HepG2, 5 µM): 28%

TCACAGGCTTGAATGAC (sugars e2 k2 d9 k2 e2, PS)
target mRNA inhibition (HepG2, 5 µM): 46%

TCACTACAGGTACTTTA (sugars e2 k2 d8 k2 e3, PS)
target mRNA inhibition (HepG2, 5 µM): 27%

TCACTACAGGTACTTTA (sugars e2 k2 d9 k2 e2, PS)
target mRNA inhibition (HepG2, 5 µM): 35%

TCACTGGTCCATTACTT (sugars e3 k2 d7 k2 e3, PS)
target mRNA inhibition (HepG2, 3 µM): 15%

TCAGACTACATCCAAGG (sugars e2 k2 d8 k2 e3, PS)
target mRNA inhibition (HepG2, 0.1875 µM): 37%
target mRNA inhibition (HepG2, 0.75 µM): 71%
target mRNA inhibition (HepG2, 3 µM): 81%
target mRNA inhibition (HepG2, 4 µM): 79%
target mRNA inhibition (HepG2, 12 µM): 92%

TCAGACTACATCCAAGG (sugars e2 k2 d9 k2 e2, PS)
target mRNA inhibition (HepG2, 0.1875 µM): 0%
target mRNA inhibition (HepG2, 0.75 µM): 47%
target mRNA inhibition (HepG2, 3 µM): 75%
target mRNA inhibition (HepG2, 4 µM): 78%
target mRNA inhibition (HepG2, 12 µM): 90%

TCATAATAAGTGCCATA (sugars e2 k2 d8 k2 e3, PS)
target mRNA inhibition (HepG2, 5 µM): 28%

TCATAATAAGTGCCATA (sugars e2 k2 d9 k2 e2, PS)
target mRNA inhibition (HepG2, 5 µM): 34%

TCCAAGGGAATGTTTAT (sugars e3 k2 d7 k2 e3, PS)
target mRNA inhibition (HepG2, 3 µM): 32%

TCCAAGTGATCATAAAT (sugars e2 k2 d8 k2 e3, PS)
target mRNA inhibition (HepG2, 5 µM): 42%

TCCACCTTTGCCCAAGT (sugars e3 k2 d7 k2 e3, PS)
target mRNA inhibition (HepG2, 3 µM): 88%

TCGCCCTTCAGCACGCA (sugars e2 k2 d9 k2 e2, PS)
target mRNA inhibition (HepG2, 4 µM): 63% and 60% and 54%
target mRNA inhibition (HepG2, 5 µM): 61% and 58% and 71%
target mRNA inhibition (HepG2, 12 µM): 74%

TCGCCCTTCAGCACGCA (sugars e3 k2 d7 k2 e3, PS)
target mRNA inhibition (HepG2, 3 µM): 31%

TCTCACTACAGGTACTT (sugars e2 k2 d8 k2 e3, PS)
target mRNA inhibition (HepG2, 5 µM): 42%

TCTGGATAGAGGATTAA (sugars e3 k2 d7 k2 e3, PS)
target mRNA inhibition (HepG2, 3 µM): 25%

TCTTCATTTCCACCTTT (sugars e3 k2 d7 k2 e3, PS)
target mRNA inhibition (HepG2, 3 µM): 31%

TCTTCCAAGTGATCATAAAT (sugars e5 d10 e5, PS)
target mRNA inhibition (HepG2, 5 µM): 12%

TGATCATAAATCAGTTT (sugars e2 k2 d9 k2 e2, PS)
target mRNA inhibition (HepG2, 5 µM): 38%

TGATGCAATGGTCTCCTGAG (sugars e5 d10 e5, PS)
target mRNA inhibition (HepG2, 5 µM): 1%

TGATTTAAGTCTGGCAA (sugars e2 k2 d8 k2 e3, PS)
target mRNA inhibition (HepG2, 5 µM): 52%

TGCCCTGCACTGGGCCGTCG (sugars e5 d10 e5, PS)
target mRNA inhibition (HepG2, 4 µM): 38%

TGCCTCTCTTCATCCTTTGG (sugars e5 d10 e5, PS)
target mRNA inhibition (HepG2, 3 µM): 32%

TGGACCACCAGTGTGCGGCC (sugars e5 d10 e5, PS)
target mRNA inhibition (HepG2, 5 µM): 28%

TGGCAAAATACAGGTCA (sugars e3 k2 d7 k2 e3, PS)
target mRNA inhibition (HepG2, 3 µM): 26%

TGTGATTTAAGTCTGGC (sugars e2 k2 d9 k2 e2, PS)
target mRNA inhibition (HepG2, 5 µM): 58%

TGTTTAATGTTTATCA (sugars kekeddddddddekek, linkages s1 o3 s8 o1 s2)
target mRNA inhibition (A431, 0.12 µM): 6%
target mRNA inhibition (A431, 0.6 µM): 14%
target mRNA inhibition (A431, 3 µM): 15%
target mRNA inhibition (A431, 15 µM): 32%
target mRNA inhibition (HepG2, 0.222 µM): 42%
target mRNA inhibition (HepG2, 0.667 µM): 54%
target mRNA inhibition (HepG2, 2 µM): 69%
target mRNA inhibition (HepG2, 6 µM): 86%

TGTTTATCAGGATACATTTC (sugars e5 d10 e5, PS)
target mRNA inhibition (HepG2, 5 µM): 52%

TTAAGTCTGGCAAAATA (sugars e3 k2 d7 k2 e3, PS)
target mRNA inhibition (HepG2, 3 µM): 2%

TTAATACCCATCTGTGA (sugars e2 k2 d8 k2 e3, PS)
target mRNA inhibition (HepG2, 5 µM): 28%

TTAATGTTTATCAGGATA (sugars e5 d8 e5, linkages s1 o3 s9 o2 s2)
target mRNA inhibition (A431, 0.12 µM): 18%
target mRNA inhibition (A431, 0.6 µM): 7%
target mRNA inhibition (A431, 3 µM): 11%
target mRNA inhibition (A431, 15 µM): 9%
target mRNA inhibition (HepG2, 0.222 µM): 0%
target mRNA inhibition (HepG2, 0.667 µM): 17%
target mRNA inhibition (HepG2, 2 µM): 47%
target mRNA inhibition (HepG2, 6 µM): 72%

TTAATGTTTATCAGGATACA (sugars e5 d10 e5, PS)
target mRNA inhibition (HepG2, 5 µM): 34%

TTACACCACAAGCCAAACGA (sugars e5 d10 e5, PS)
target mRNA inhibition (HepG2, 5 µM): 24%

TTAGTTTGAATTTGGAT (sugars e2 k2 d8 k2 e3, PS)
target mRNA inhibition (HepG2, 5 µM): 31%

TTAGTTTGAATTTGGAT (sugars e2 k2 d9 k2 e2, PS)
target mRNA inhibition (HepG2, 5 µM): 16%

TTATTCACAGGCTTGAA (sugars e2 k2 d8 k2 e3, PS)
target mRNA inhibition (HepG2, 5 µM): 26%

TTATTGGGCGATCCCAA (sugars e2 k2 d8 k2 e3, PS)
target mRNA inhibition (HepG2, 4 µM): 41%

TTCATTTCCACCTTTGC (sugars e3 k2 d7 k2 e3, PS)
target mRNA inhibition (HepG2, 3 µM): 33%

TTCCCCACACCTTCAC (sugars kekeddddddddekek, linkages s1 o3 s8 o1 s2)
target mRNA inhibition (A431, 0.12 µM): 4%
target mRNA inhibition (A431, 0.6 µM): 12%
target mRNA inhibition (A431, 3 µM): 5%
target mRNA inhibition (A431, 15 µM): 12%
target mRNA inhibition (HepG2, 0.222 µM): 6%
target mRNA inhibition (HepG2, 0.667 µM): 16%
target mRNA inhibition (HepG2, 2 µM): 20%
target mRNA inhibition (HepG2, 6 µM): 59%

TTCTACAGCTAGCAGGA (sugars e2 k2 d8 k2 e3, PS)
target mRNA inhibition (HepG2, 0.1875 µM): 18%
target mRNA inhibition (HepG2, 0.75 µM): 48%
target mRNA inhibition (HepG2, 3 µM): 66%
target mRNA inhibition (HepG2, 4 µM): 74%
target mRNA inhibition (HepG2, 12 µM): 86%

TTCTACAGCTAGCAGGA (sugars e3 k2 d7 k2 e3, PS)
target mRNA inhibition (HepG2, 3 µM): 31%

TTCTCACTACAGGTACT (sugars e2 k2 d8 k2 e3, PS)
target mRNA inhibition (HepG2, 5 µM): 26%

TTCTTTTAATAGCCTCATAA (sugars e5 d10 e5, PS)
target mRNA inhibition (HepG2, 5 µM): 5%

TTGGATTCTTTTAATAG (sugars e2 k2 d9 k2 e2, PS)
target mRNA inhibition (HepG2, 5 µM): 8%

TTGGGCGATCCCAATTA (sugars e2 k2 d8 k2 e3, PS)
target mRNA inhibition (HepG2, 4 µM): 14%
